From patent publication US9181239B2, “Pyridopyrimidinone inhibitors of kinases” (AbbVie Inc., priority 2011, dated 2015)

Target: T1, Wee1 kinase (Homo sapiens, UniProt P30291)
T1 construct: purchased Carnabio 05-177
Assay: Wee1 time-resolved fluorescence equilibrium binding assay (probe displacement)
Details: GST-tagged-Wee1 kinase 2 nM, fluorescent probe 300 nM, 1 hour incubation; read-out: Wee-1 binding (Ki nM)
Procedure: Wee1 kinase was assayed using a time-resolved fluorescence equilibrium binding assay monitoring displacement of a rapidly reversible Oregon Green-labeled ATP-competitive kinase probe (N-(2-(2-(2-(4-(4-(5-chloro-4-(2-(1-hydroxycyclobutyl)thiazol-5-yl)-1H-pyrrolo[2,3-b]pyridin-2-yl)phenyl)piperazin-1-yl)ethoxy)ethoxy)ethyl)-2′,7′-difluoro-3′,6′-dihydroxy-3-oxo-3H-spiro[isobenzofuran-1,9′-xanthene]-5-carboxamide) by competitive Wee1 inhibitors.

T1 sequence (P30291 whole entry): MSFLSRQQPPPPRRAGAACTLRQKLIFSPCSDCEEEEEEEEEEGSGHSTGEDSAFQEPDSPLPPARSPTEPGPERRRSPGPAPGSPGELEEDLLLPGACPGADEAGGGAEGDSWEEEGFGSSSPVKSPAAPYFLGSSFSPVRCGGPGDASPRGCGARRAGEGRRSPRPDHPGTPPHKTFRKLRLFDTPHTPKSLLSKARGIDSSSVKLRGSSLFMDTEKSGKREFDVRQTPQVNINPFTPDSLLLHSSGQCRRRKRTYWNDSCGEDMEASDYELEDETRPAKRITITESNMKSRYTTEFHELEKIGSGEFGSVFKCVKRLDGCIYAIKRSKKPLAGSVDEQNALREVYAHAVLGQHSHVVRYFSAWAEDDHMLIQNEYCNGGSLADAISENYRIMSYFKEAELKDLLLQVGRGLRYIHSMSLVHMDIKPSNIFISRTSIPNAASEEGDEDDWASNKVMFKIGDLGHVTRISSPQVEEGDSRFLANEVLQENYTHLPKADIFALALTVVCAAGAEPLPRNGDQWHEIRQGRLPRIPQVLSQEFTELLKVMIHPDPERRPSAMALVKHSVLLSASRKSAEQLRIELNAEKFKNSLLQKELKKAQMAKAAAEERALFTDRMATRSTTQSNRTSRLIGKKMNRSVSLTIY

Row | SMILES | Ki [nM]
1 | Cn1cc(-c2c(Cl)cccc2Cl)c(=O)c2cnc(Nc3ccc4c(c3)CNC4(C)C)nc21 [Example 65, 6-(2,6-dichlorophenyl)-2-[(1,1-dimethyl-2,3-dihydro-1H-isoindol-5-yl)amino]-8-methylpyrido[2,3-d]pyrimidin-5(8H)-one] | 0.3
2 | Cn1cc(-c2c(Cl)cccc2Cl)c(=O)c2cnc(Nc3ccc4c(c3)CNCC4)nc21 [Example 51, 6-(2,6-dichlorophenyl)-8-methyl-2-(1,2,3,4-tetrahydroisoquinolin-7-ylamino)pyrido[2,3-d]pyrimidin-5(8H)-one] | 0.4
3 | CN1CCC(Nc2ccc(Nc3ncc4c(=O)c(-c5c(Cl)cccc5Cl)cn(C)c4n3)cc2)CC1 [Example 61, 6-(2,6-dichlorophenyl)-8-methyl-2-({4-[(1-methylpiperidin-4-yl)amino]phenyl}amino)pyrido[2,3-d]pyrimidin-5(8H)-one] | 0.6
4 | O=c1c(-c2c(Cl)cccc2Cl)cn(C2CC2)c2nc(Nc3ccc4c(c3)CNCC43CC3)ncc12 [Example 24, 8-cyclopropyl-6-(2,6-dichlorophenyl)-2-(2′,3′-dihydro-1′H-spiro[cyclopropane-1,4′-isoquinolin]-7′-ylamino)pyrido[2,3-d]pyrimidin-5(8H)-one] | 0.8
5 | CN1CCC(Nc2ccc(Nc3ncc4c(=O)c(-c5c(Cl)cccc5Cl)cn(C)c4n3)cc2)C1 (stereo not drawn) [Example 67, 6-(2,6-dichlorophenyl)-8-methyl-2-({4-[(1-methylpyrrolidin-3-yl)amino]phenyl}amino)pyrido[2,3-d]pyrimidin-5(8H)-one] | 0.5
6 | CN1Cc2cc(Nc3ncc4c(=O)c(-c5c(F)cccc5Cl)c[nH]c4n3)ccc2C2(CC2)C1 [Example 39, 6-(2-chloro-6-fluorophenyl)-2-[(2′-methyl-2′,3′-dihydro-1′H-spiro[cyclopropane-1,4′-isoquinolin]-7′-yl)amino]pyrido[2,3-d]pyrimidin-5(8H)-one] | 0.7
7 | CN(C)C1Cc2ccc(Nc3ncc4c(=O)c(-c5c(Cl)cccc5Cl)cn(C5CC5)c4n3)cc2C1 (stereo not drawn) [Example 25, 8-cyclopropyl-6-(2,6-dichlorophenyl)-2-{[2-(dimethylamino)-2,3-dihydro-1H-inden-5-yl]amino}pyrido[2,3-d]pyrimidin-5(8H)-one] | 1.2
8 | Cn1cc(-c2c(Cl)cccc2Cl)c(=O)c2cnc(Nc3ccc(N[C@H]4CC[C@H](N(C)C)CC4)cc3)nc21 [Example 76, 6-(2,6-dichlorophenyl)-2-[(4-{[trans-4-(dimethylamino)cyclohexyl]amino}phenyl)amino]-8-methylpyrido[2,3-d]pyrimidin-5(8H)-one] | 0.7
9 | Cn1cc(-c2c(F)cccc2Cl)c(=O)c2cnc(Nc3ccc(NC4CCNCC4)cc3)nc21 [Example 73, 6-(2-chloro-6-fluorophenyl)-8-methyl-2-{[4-(piperidin-4-ylamino)phenyl]amino}pyrido[2,3-d]pyrimidin-5(8H)-one] | 2.8
10 | CCn1cc(-c2c(Cl)cccc2Cl)c(=O)c2cnc(Nc3ccc4c(c3)CN(C)CC43CC3)nc21 [Example 32, 6-(2,6-dichlorophenyl)-8-ethyl-2-[(2′-methyl-2′,3′-dihydro-1′H-spiro[cyclopropane-1,4′-isoquinolin]-7′-yl)amino]pyrido[2,3-d]pyrimidin-5(8H)-one] | 0.3
11 | CN1CCN(c2ccc(Nc3ncc4c(=O)c(-c5c(Cl)cccc5Cl)c5n(c4n3)CCC5)cc2)CC1 [Example 6, 6-(2,6-dichlorophenyl)-2-{[4-(4-methylpiperazin-1-yl)phenyl]amino}-8,9-dihydropyrimido[4,5-e]indolizin-5(7H)-one] | 5.7
12 | CN1Cc2cc(Nc3ncc4c(=O)c(-c5c(Cl)cccc5Cl)cn(C)c4n3)ccc2C(C)(C)C1 [Example 20, 6-(2,6-dichlorophenyl)-8-methyl-2-[(2,4,4-trimethyl-1,2,3,4-tetrahydroisoquinolin-7-yl)amino]pyrido[2,3-d]pyrimidin-5(8H)-one] | 0.3
